pIC50: −log10 of the molar value.

For the assay, the target named is T1, EP2 receptor (Homo sapiens, UniProt P43116).
T1 construct: expressed in transfected cells; host or cells: CHO-K1 cells (ATCC), transient transfection with FuGENE 6
T1 sequence (P43116 whole entry): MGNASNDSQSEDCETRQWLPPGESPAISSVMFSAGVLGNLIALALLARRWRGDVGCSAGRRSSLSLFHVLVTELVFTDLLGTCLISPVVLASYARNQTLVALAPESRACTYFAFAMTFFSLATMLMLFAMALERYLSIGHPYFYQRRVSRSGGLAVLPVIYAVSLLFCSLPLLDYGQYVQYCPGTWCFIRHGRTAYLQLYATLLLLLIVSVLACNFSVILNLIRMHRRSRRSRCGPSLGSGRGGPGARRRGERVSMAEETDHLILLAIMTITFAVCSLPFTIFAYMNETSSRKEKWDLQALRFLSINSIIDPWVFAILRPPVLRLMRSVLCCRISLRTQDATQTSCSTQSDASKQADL
In words: EP2 Potency Assay (cAMP TR-FRET, CHO-K1 cells transfected with EP2 receptor, PGE2 at EC80). The class given is cell-based. To be noted: CHO-K1 cells expressing EP2, prostaglandin E2 at EC80, read-out: EP2 Potency (IC50 category). As for the experimental part:
Compound potency was measured using a cAMP TR-FRET assay.
After 6 hours incubation, the cell media was replaced with F12 medium supplemented with 10% FBS and 100 U/ml Pen-Strep. 24 hours after transfection, cells were harvested and seeded at a density of 3000 cells/well in a 384 well plate to perform the cAMP assay, using the LANCE Ultra cAMP assay kit (PerkinElmer).
Plates were then centrifuged at 1000 rpm for 1 min, agitated at 600 rpm at R.T. for 2 min, and incubated at 25° C. for 5 min. The reference agonist, prostaglandin E2 (MCE), was added to each well at the appropriate concentration to reach its EC80 value. Plates were then centrifuged at 1000 rpm for 1 min, agitated at 600 rpm at R.T. for 2 min, and incubated at 25° C. for 30 min.
A dose-response curve was prepared by plotting percent inhibition for each compound concentration, and then IC50 was calculated by fitting a curve to the plotted values and extrapolating the IC50 concentration.
In general terms: Time-resolved FRET reads energy transfer from a long-lived donor to a nearby acceptor.
As a reminder, the pIC50 is the negative decadic logarithm of the IC50, by convention in mol/L. With `O=c1ncc(CN2CCOc3c(Cl)cc(N4CCOc5cc(F)ccc54)cc3C2)c[nH]1` [Compound 81], the pIC50 was 5.30 to 6.00.
As to `O=c1ncc(CN2CCOc3c(Cl)cc(-c4cccc5ccccc45)cc3C2)c[nH]1` [Compound 82], the negative-log IC50 (pIC50) is 5.30 to 6.00.
Take `O=c1ncc(CN2CCOc3c(Cl)cc(-c4cccc5c4CCCC5)cc3C2)c[nH]1` [Compound 83]: the negative-log IC50 (pIC50) is under 5.30.
As for `O=c1ncc(CN2CCOc3c(Cl)cc(-c4coc5ccccc45)cc3C2)c[nH]1` [Compound 84], the negative logarithm of the IC50 (pIC50) is 6.30 to 7.00.
On to `O=c1ncc(CN2CCOc3c(Cl)cc(-c4cccc5c4OCCO5)cc3C2)c[nH]1` [Compound 85], for which the negative-log IC50 (pIC50) is under 5.30.
To `Fc1ccc2c(ccn2-c2cc(Cl)c3c(c2)CN(Cc2cc[nH]c2)CCO3)c1` [Compound 86] belongs under 5.30; to `Fc1ccc2c(ccn2-c2cc(Cl)c3c(c2)CN(Cc2ccc[nH]2)CCO3)c1` [Compound 87], under 5.30.
On to `CC(C)(C)OC(=O)n1cccc1CN1CCOc2c(Cl)cc(-n3ccc4cc(F)ccc43)cc2C1` [Compound 88], for which the pIC50 was under 5.30.
For `Fc1ccc2c(ccn2-c2cc(Cl)c3c(c2)CN(Cc2ccco2)CCO3)c1` [Compound 89], the negative logarithm of the IC50 (pIC50) is under 5.30.
On to `Fc1ccc2c(ccn2-c2cc(Cl)c3c(c2)CN(Cc2ccoc2)CCO3)c1` [Compound 90], for which the pIC50 was under 5.30.
Turning to `Fc1ccc2c(ccn2-c2cc(Cl)c3c(c2)CN(Cc2cccs2)CCO3)c1` [Compound 91], the pIC50 was under 5.30.
As to `Fc1ccc2c(ccn2-c2cc(Cl)c3c(c2)CN(Cc2ccsc2)CCO3)c1` [Compound 92], the pIC50 was under 5.30.
Regarding `Fc1ccc2c(ccn2-c2cc(Cl)c3c(c2)CN(Cc2cnco2)CCO3)c1` [Compound 93, 9-chloro-7-(5-fluoro-1H-indol-1-yl)-4-(oxazol-5-ylmethyl)-2,3,4,5-tetrahydrobenzo[f][1,4]oxazepine], the negative-log IC50 (pIC50) is 6.00 to 6.30.
To `Fc1ccc2c(ccn2-c2cc(Cl)c3c(c2)CN(Cc2ccno2)CCO3)c1` [Compound 94] belongs 5.30 to 6.00; to `Fc1ccc2c(ccn2-c2cc(Cl)c3c(c2)CN(Cc2cocn2)CCO3)c1` [Compound 95], under 5.30.
Consider `Fc1ccc2c(ccn2-c2cc(Cl)c3c(c2)CN(Cc2cnsc2)CCO3)c1` [Compound 96], for which the negative-log IC50 (pIC50) is 5.30 to 6.00.
With `Fc1ccc2c(ccn2-c2cc(Cl)c3c(c2)CN(Cc2ccsn2)CCO3)c1` [Compound 97], the pIC50 was under 5.30.
In the case of `Fc1ccc2c(ccn2-c2cc(Cl)c3c(c2)CN(Cc2cncs2)CCO3)c1` [Compound 99], the negative-log IC50 (pIC50) was 6.00 to 6.30.
In the case of `Fc1ccc2c(ccn2-c2cc(Cl)c3c(c2)CN(Cc2cscn2)CCO3)c1` [Compound 100, 9-chloro-7-(5-fluoroindol-1-yl)-4-(1,3-thiazol-4-ylmethyl)-3,5-dihydro-2H-1,4-benzoxazepine], the negative-log IC50 (pIC50) is under 5.30.
`Fc1ccc2c(ccn2-c2cc(Cl)c3c(c2)CN(Cc2cc[nH]n2)CCO3)c1` [Compound 101]: the negative logarithm of the IC50 (pIC50) is under 5.30.
On to `Cn1ccc(CN2CCOc3c(Cl)cc(-n4ccc5cc(F)ccc54)cc3C2)n1` [Compound 102], for which the pIC50 was under 5.30.
To `Fc1ccc2c(ccn2-c2cc(Cl)c3c(c2)CN(Cc2cn[nH]c2)CCO3)c1` [Compound 103, 4-((1H-pyrazol-4-yl)methyl)-9-chloro-7-(5-fluoro-1H-indol-1-yl)-2,3,4,5-tetrahydrobenzo[f][1,4]oxazepane] belongs 5.30 to 6.00; to `CC(C)(C)OC(=O)n1cc(CN2CCOc3c(Cl)cc(-n4ccc5cc(F)ccc54)cc3C2)cn1` [Compound 104], under 5.30.
Turning to `COc1n[nH]cc1CN1CCOc2c(Cl)cc(-n3ccc4cc(F)ccc43)cc2C1` [Compound 105, 9-chloro-7-(5-fluoroindol-1-yl)-4-[(3-methoxy-1H-pyrazol-4-yl)methyl]-3,5-dihydro-2H-1,4-benzoxazepine], the negative logarithm of the IC50 (pIC50) was under 5.30.
Regarding `Fc1ccc2c(ccn2-c2cc(Cl)c3c(c2)CN(Cc2cnc[nH]2)CCO3)c1` [Compound 107], the pIC50 was under 5.30.
As to `Fc1ccc2c(ccn2-c2cc(Cl)c3c(c2)CN(Cc2cn[nH]n2)CCO3)c1` [Compound 108, 9-chloro-7-(5-fluoroindol-1-yl)-4-(2H-1,2,3-triazol-4-ylmethyl)-3,5-dihydro-2H-1,4-benzoxazepine], the pIC50 was 5.30 to 6.00.
With `Fc1ccc2c(ccn2-c2cc(Cl)c3c(c2)CN(Cc2nnc[nH]2)CCO3)c1` [Compound 109, 9-chloro-7-(5-fluoroindol-1-yl)-4-(4H-1,2,4-triazol-3-ylmethyl)-3,5-dihydro-2H-1,4-benzoxazepine], the negative-log IC50 (pIC50) is under 5.30.
`Fc1ccc2c(ccn2-c2cc(Cl)c3c(c2)CN(Cc2ncon2)CCO3)c1` [Compound 110]: the negative-log IC50 (pIC50) is under 5.30.
As to `Fc1ccc2c(ccn2-c2cc(Cl)c3c(c2)CN(Cc2nnco2)CCO3)c1` [Compound 111, 9-chloro-7-(5-fluoroindol-1-yl)-4-(1,3,4-oxadiazol-2-ylmethyl)-3,5-dihydro-2H-1,4-benzoxazepine], the negative-log IC50 (pIC50) is 5.30 to 6.00.
To `Fc1ccc2c(ccn2-c2cc(Cl)c3c(c2)CN(Cc2nncs2)CCO3)c1` [Compound 112] belongs 5.30 to 6.00.
On to `Fc1ccc2c(ccn2-c2cc(Cl)c3c(c2)CN(Cc2cnsn2)CCO3)c1` [Compound 113], for which the pIC50 is 5.30 to 6.00.
Consider `Fc1ccc2c(ccn2-c2cc(Cl)c3c(c2)CN(Cc2nsc(Cl)n2)CCO3)c1` [Compound 115, 9-chloro-4-[(5-chloro-1,2,4-thiadiazol-3-yl)methyl]-7-(5-fluoroindol-1-yl)-3,5-dihydro-2H-1,4-benzoxazepine], for which the pIC50 is under 5.30.
Regarding `Nc1nc(CN2CCOc3c(Cl)cc(-n4ccc5cc(F)ccc54)cc3C2)ns1` [Compound 117, 3-{[9-chloro-7-(5-fluoroindol-1-yl)-3,5-dihydro-2H-1,4-benzoxazepin-4-yl]methyl}-1,2,4-thiadiazol-5-amine], the pIC50 is under 5.30.
On to `Fc1ccc2c(ccn2-c2cc(Cl)c3c(c2)CN(Cc2nn[nH]n2)CCO3)c1` [Compound 118, 9-chloro-7-(5-fluoroindol-1-yl)-4-(2H-1,2,3,4-tetrazol-5-ylmethyl)-3,5-dihydro-2H-1,4-benzoxazepine], for which the pIC50 was under 5.30.
With `Oc1ccccc1CN1CCOc2c(Cl)cc(-n3ccc4cc(F)ccc43)cc2C1` [Compound 119], the negative logarithm of the IC50 (pIC50) was under 5.30.
To `Oc1cccc(CN2CCOc3c(Cl)cc(-n4ccc5cc(F)ccc54)cc3C2)c1` [Compound 120] belongs under 5.30; to `Oc1ccc(CN2CCOc3c(Cl)cc(-n4ccc5cc(F)ccc54)cc3C2)cc1` [Compound 121], under 5.30.
With `Fc1ccc2c(ccn2-c2cc(Cl)c3c(c2)CN(Cc2ccccc2C(F)F)CCO3)c1` [Compound 122, 9-chloro-4-(2-(difluoromethyl)benzyl)-7-(5-fluoro-1H-indol-1-yl)-2,3,4,5-tetrahydrobenzo[f][1,4]oxazepane], the negative logarithm of the IC50 (pIC50) was under 5.30.
Turning to `Fc1ccc2c(ccn2-c2cc(Cl)c3c(c2)CN(Cc2cccc(C(F)F)c2)CCO3)c1` [Compound 123], the pIC50 was under 5.30.
Consider `Fc1ccc2c(ccn2-c2cc(Cl)c3c(c2)CN(Cc2ccc(C(F)F)cc2)CCO3)c1` [Compound 124], for which the pIC50 is under 5.30.
As for `NC(=O)[C@H]1CC[C@@H](CN2CCOc3c(Cl)cc(-n4ccc5cc(F)ccc54)cc3C2)CC1` [Compound 125], the pIC50 was 5.30 to 6.00.
As for `NC(=O)[C@H]1CC[C@H](CN2CCOc3c(Cl)cc(-n4ccc5cc(F)ccc54)cc3C2)CC1` [Compound 126], the pIC50 is 6.00 to 6.30.
For the compound `CNC(=O)[C@H]1CC[C@H](CN2CCOc3c(Cl)cc(-n4ccc5cc(F)ccc54)cc3C2)CC1` [Compound 127, trans-4-{[9-chloro-7-(5-fluoroindol-1-yl)-3,5-dihydro-2H-1,4-benzoxazepin-4-yl]methyl}-N-methylcyclohexane-1-carboxamide], the negative logarithm of the IC50 (pIC50) is 6.00 to 6.30.
Take `CNC(=O)[C@H]1CC[C@@H](CN2CCOc3c(Cl)cc(-n4ccc5cc(F)ccc54)cc3C2)CC1` [Compound 128, cis-4-{[9-chloro-7-(5-fluoroindol-1-yl)-3,5-dihydro-2H-1,4-benzoxazepin-4-yl]methyl}-N-methylcyclohexane-1-carboxamide]: the negative logarithm of the IC50 (pIC50) was 5.30 to 6.00.
With `CN(C)C(=O)[C@H]1CC[C@@H](CN2CCOc3c(Cl)cc(-n4ccc5cc(F)ccc54)cc3C2)CC1` [Compound 129], the pIC50 was 5.30 to 6.00.
Consider `CN(C)C(=O)[C@H]1CC[C@H](CN2CCOc3c(Cl)cc(-n4ccc5cc(F)ccc54)cc3C2)CC1` [Compound 130], for which the negative logarithm of the IC50 (pIC50) is 5.30 to 6.00.
Turning to `O=C(O)[C@H]1CC[C@H](CN2CCOc3c(Cl)cc(-n4ccc5cc(F)ccc54)cc3C2)CC1` [Compound 131], the negative logarithm of the IC50 (pIC50) is 6.00 to 6.30.
In the case of `O=C(O)[C@H]1CC[C@@H](CN2CCOc3c(Cl)cc(-n4ccc5cc(F)ccc54)cc3C2)CC1` [Compound 132, cis-4-{[9-chloro-7-(5-fluoroindol-1-yl)-3,5-dihydro-2H-1,4-benzoxazepin-4-yl]methyl}cyclohexane-1-carboxylic acid], the pIC50 was 5.30 to 6.00.
For the compound `COC(=O)[C@H]1CC[C@H](CN2CCOc3c(Cl)cc(-n4ccc5cc(F)ccc54)cc3C2)CC1` [Compound 133], the pIC50 is under 5.30.
In the case of `COC(=O)[C@H]1CC[C@@H](CN2CCOc3c(Cl)cc(-n4ccc5cc(F)ccc54)cc3C2)CC1` [Compound 134], the pIC50 is under 5.30.

The values above are taken from US12624024B2, “EP2 antagonist compounds” (Reservoir Neuroscience, Inc., priority 2021, dated 2026).
